Assays:
Assay type in all cases: functional
Aspergillus niger = test: Antifungal activity against Aspergillus niger at […] after 24 hr by agar well diffusion assay
Bacillus subtilis = test: Antibacterial activity against Bacillus subtilis at […] after 24 hr by agar well diffusion assay
Escherichia coli = test: Antibacterial activity against Escherichia coli at […] after 24 hr by agar well diffusion assay
Streptococcus pyogenes = test: Antibacterial activity against Streptococcus pyogenes at […] after 24 hr by agar well diffusion assay

`CCOc1ccc(NC(=S)Sc2nc(Nc3cccc(C)c3)nc(Nc3cccc(C)c3)n2)cc1` was tested, and the “inhibition zone (IZ)” value (Aspergillus niger) was 18 mm, the “inhibition zone (IZ)” value (Bacillus subtilis) was 13 mm and the “inhibition zone (IZ)” value (Escherichia coli) was 14 mm. The “inhibition zone (IZ)” value (Streptococcus pyogenes) was 13 mm.

With `Cc1cccc(Nc2nc(Nc3cccc(C)c3)nc(SC(=S)Nc3ccccc3C)n2)c1` the “inhibition zone (IZ)” value (Aspergillus niger) was 23 mm, the “inhibition zone (IZ)” value (Bacillus subtilis) was 12 mm and the “inhibition zone (IZ)” value (Escherichia coli) was 12 mm. For the same molecule, the “inhibition zone (IZ)” value (Streptococcus pyogenes) was 11 mm.

For `Cc1cccc(NC(=S)Sc2nc(Nc3cccc(C)c3)nc(Nc3cccc(C)c3)n2)c1`, the “inhibition zone (IZ)” value (Aspergillus niger) was 20 mm, the “inhibition zone (IZ)” value (Bacillus subtilis) was 14 mm and the “inhibition zone (IZ)” value (Escherichia coli) was 15 mm. The “inhibition zone (IZ)” value (Streptococcus pyogenes) was 12 mm.

`Cc1ccc(NC(=S)Sc2nc(Nc3cccc(C)c3)nc(Nc3cccc(C)c3)n2)cc1` was tested, and the “inhibition zone (IZ)” value (Aspergillus niger) was 14 mm, the “inhibition zone (IZ)” value (Bacillus subtilis) was 15 mm and the “inhibition zone (IZ)” value (Escherichia coli) was 19 mm. For the same molecule, the “inhibition zone (IZ)” value (Streptococcus pyogenes) was 15 mm.

With `COc1ccccc1NC(=S)Sc1nc(Nc2cccc(C)c2)nc(Nc2cccc(C)c2)n1` the “inhibition zone (IZ)” value (Aspergillus niger) was 18 mm, the “inhibition zone (IZ)” value (Bacillus subtilis) was 14 mm and the “inhibition zone (IZ)” value (Escherichia coli) was 13 mm. For the same molecule, the “inhibition zone (IZ)” value (Streptococcus pyogenes) was 14 mm.

In the case of `COc1ccc(NC(=S)Sc2nc(Nc3cccc(C)c3)nc(Nc3cccc(C)c3)n2)cc1`, the “inhibition zone (IZ)” value (Aspergillus niger) is reported as 17 mm, the “inhibition zone (IZ)” value (Bacillus subtilis) is reported as 12 mm and the “inhibition zone (IZ)” value (Escherichia coli) is reported as 12 mm. For the same molecule, the “inhibition zone (IZ)” value (Streptococcus pyogenes) was 15 mm.

In the case of `Cc1cccc(Nc2nc(Nc3cccc(C)c3)nc(SC(=S)Nc3ccccc3[N+](=O)[O-])n2)c1`, the “inhibition zone (IZ)” value (Aspergillus niger) is reported as 16 mm, the “inhibition zone (IZ)” value (Bacillus subtilis) is reported as 15 mm and the “inhibition zone (IZ)” value (Escherichia coli) is reported as 15 mm. For the same molecule, the “inhibition zone (IZ)” value (Streptococcus pyogenes) was 14 mm.

`Cc1cccc(Nc2nc(Nc3cccc(C)c3)nc(SC(=S)Nc3ccc([N+](=O)[O-])cc3)n2)c1` was tested, and the “inhibition zone (IZ)” value (Aspergillus niger) was 17 mm, the “inhibition zone (IZ)” value (Bacillus subtilis) was 13 mm and the “inhibition zone (IZ)” value (Escherichia coli) was 13 mm. For the same molecule, the “inhibition zone (IZ)” value (Streptococcus pyogenes) was 15 mm.

`Cc1cccc(Nc2nc(Nc3cccc(C)c3)nc(SC(=S)NN3CCOCC3)n2)c1` was tested, and the “inhibition zone (IZ)” value (Aspergillus niger) was 15 mm, the “inhibition zone (IZ)” value (Bacillus subtilis) was 12 mm and the “inhibition zone (IZ)” value (Escherichia coli) was 12 mm. For the same molecule, the “inhibition zone (IZ)” value (Streptococcus pyogenes) was 13 mm.

With `CC(=O)N(C(C)=O)C(=S)Sc1nc(Nc2cccc(C)c2)nc(Nc2cccc(C)c2)n1` the “inhibition zone (IZ)” value (Aspergillus niger) was 14 mm, the “inhibition zone (IZ)” value (Bacillus subtilis) was 12 mm and the “inhibition zone (IZ)” value (Escherichia coli) was 11 mm. The “inhibition zone (IZ)” value (Streptococcus pyogenes) was 11 mm.

For `Cc1cccc(Nc2nc(SC(=S)Nc3ccccc3)nc(SC(=S)Nc3ccccc3)n2)c1`, the “inhibition zone (IZ)” value (Aspergillus niger) was 12 mm, the “inhibition zone (IZ)” value (Bacillus subtilis) was 15 mm and the “inhibition zone (IZ)” value (Escherichia coli) was 12 mm. The “inhibition zone (IZ)” value (Streptococcus pyogenes) was 12 mm.

`Cc1cccc(Nc2nc(SC(=S)Nc3ccc(Cl)cc3)nc(SC(=S)Nc3ccc(Cl)cc3)n2)c1` was tested, and the “inhibition zone (IZ)” value (Aspergillus niger) was 17 mm, the “inhibition zone (IZ)” value (Bacillus subtilis) was 18 mm and the “inhibition zone (IZ)” value (Escherichia coli) was 15 mm. For the same molecule, the “inhibition zone (IZ)” value (Streptococcus pyogenes) was 18 mm.

`CCOc1ccc(NC(=S)Sc2nc(Nc3cccc(C)c3)nc(SC(=S)Nc3ccc(OCC)cc3)n2)cc1` was tested, and the “inhibition zone (IZ)” value (Aspergillus niger) was 12 mm, the “inhibition zone (IZ)” value (Bacillus subtilis) was 14 mm and the “inhibition zone (IZ)” value (Escherichia coli) was 16 mm. For the same molecule, the “inhibition zone (IZ)” value (Streptococcus pyogenes) was 15 mm.

With `Cc1cccc(Nc2nc(SC(=S)Nc3ccccc3C)nc(SC(=S)Nc3ccccc3C)n2)c1` the “inhibition zone (IZ)” value (Aspergillus niger) was 13 mm, the “inhibition zone (IZ)” value (Bacillus subtilis) was 19 mm and the “inhibition zone (IZ)” value (Escherichia coli) was 12 mm. For the same molecule, the “inhibition zone (IZ)” value (Streptococcus pyogenes) was 12 mm.

`Cc1cccc(NC(=S)Sc2nc(Nc3cccc(C)c3)nc(SC(=S)Nc3cccc(C)c3)n2)c1` was tested, and the “inhibition zone (IZ)” value (Aspergillus niger) was 14 mm, the “inhibition zone (IZ)” value (Bacillus subtilis) was 13 mm and the “inhibition zone (IZ)” value (Escherichia coli) was 13 mm. For the same molecule, the “inhibition zone (IZ)” value (Streptococcus pyogenes) was 12 mm.

For `Cc1ccc(NC(=S)Sc2nc(Nc3cccc(C)c3)nc(SC(=S)Nc3ccc(C)cc3)n2)cc1`, the “inhibition zone (IZ)” value (Aspergillus niger) was 20 mm, the “inhibition zone (IZ)” value (Bacillus subtilis) was 19 mm and the “inhibition zone (IZ)” value (Escherichia coli) was 13 mm. For the same molecule, the “inhibition zone (IZ)” value (Streptococcus pyogenes) was 13 mm.

For `COc1ccccc1NC(=S)Sc1nc(Nc2cccc(C)c2)nc(SC(=S)Nc2ccccc2OC)n1`, the “inhibition zone (IZ)” value (Aspergillus niger) was 14 mm, the “inhibition zone (IZ)” value (Bacillus subtilis) was 15 mm and the “inhibition zone (IZ)” value (Escherichia coli) was 15 mm. For the same molecule, the “inhibition zone (IZ)” value (Streptococcus pyogenes) was 11 mm.

For `COc1ccc(NC(=S)Sc2nc(Nc3cccc(C)c3)nc(SC(=S)Nc3ccc(OC)cc3)n2)cc1`, the “inhibition zone (IZ)” value (Aspergillus niger) was 15 mm, the “inhibition zone (IZ)” value (Bacillus subtilis) was 15 mm and the “inhibition zone (IZ)” value (Escherichia coli) was 15 mm. The “inhibition zone (IZ)” value (Streptococcus pyogenes) was 14 mm.

In the case of `Cc1cccc(Nc2nc(SC(=S)Nc3ccccc3[N+](=O)[O-])nc(SC(=S)Nc3ccccc3[N+](=O)[O-])n2)c1`, the “inhibition zone (IZ)” value (Aspergillus niger) is reported as 19 mm, the “inhibition zone (IZ)” value (Bacillus subtilis) is reported as 14 mm and the “inhibition zone (IZ)” value (Escherichia coli) is reported as 17 mm. The “inhibition zone (IZ)” value (Streptococcus pyogenes) was 13 mm.

For `Cc1cccc(Nc2nc(SC(=S)Nc3ccc([N+](=O)[O-])cc3)nc(SC(=S)Nc3ccc([N+](=O)[O-])cc3)n2)c1`, the “inhibition zone (IZ)” value (Aspergillus niger) was 16 mm, the “inhibition zone (IZ)” value (Bacillus subtilis) was 16 mm and the “inhibition zone (IZ)” value (Escherichia coli) was 15 mm. The “inhibition zone (IZ)” value (Streptococcus pyogenes) was 17 mm.

In the case of `Cc1cccc(Nc2nc(SC(=S)NN3CCOCC3)nc(SC(=S)NN3CCOCC3)n2)c1`, the “inhibition zone (IZ)” value (Aspergillus niger) is reported as 13 mm, the “inhibition zone (IZ)” value (Bacillus subtilis) is reported as 13 mm and the “inhibition zone (IZ)” value (Escherichia coli) is reported as 12 mm. For the same molecule, the “inhibition zone (IZ)” value (Streptococcus pyogenes) was 14 mm.

For `CCN(CC)C(=S)Sc1nc(Nc2cccc(C)c2)nc(SC(=S)N(CC)CC)n1`, the “inhibition zone (IZ)” value (Aspergillus niger) was 13 mm, the “inhibition zone (IZ)” value (Bacillus subtilis) was 12 mm and the “inhibition zone (IZ)” value (Escherichia coli) was 12 mm. The “inhibition zone (IZ)” value (Streptococcus pyogenes) was 12 mm.

`Cc1cccc(Nc2nc(Nc3cccc(C)c3)nc(SC(=S)Nc3ccccc3)n2)c1` was tested, and the “inhibition zone (IZ)” value (Aspergillus niger) was 17 mm, the “inhibition zone (IZ)” value (Bacillus subtilis) was 12 mm and the “inhibition zone (IZ)” value (Escherichia coli) was 13 mm. For the same molecule, the “inhibition zone (IZ)” value (Streptococcus pyogenes) was 15 mm.

With `Cc1cccc(Nc2nc(Nc3cccc(C)c3)nc(SC(=S)Nc3ccc(Cl)cc3)n2)c1` the “inhibition zone (IZ)” value (Aspergillus niger) was 16 mm, the “inhibition zone (IZ)” value (Bacillus subtilis) was 12 mm and the “inhibition zone (IZ)” value (Escherichia coli) was 15 mm. For the same molecule, the “inhibition zone (IZ)” value (Streptococcus pyogenes) was 13 mm.

`CC1(C)S[C@@H]2[C@H](NC(=O)[C@H](N)c3ccccc3)C(=O)N2[C@H]1C(=O)O` [AMPICILLIN] was tested, and the “inhibition zone (IZ)” value (Bacillus subtilis) was 22 mm, the “inhibition zone (IZ)” value (Escherichia coli) was 24 mm and the “inhibition zone (IZ)” value (Streptococcus pyogenes) was 26 mm.

`O=C(N[C@H](CO)[C@H](O)c1ccc([N+](=O)[O-])cc1)C(Cl)Cl` [CHLORAMPHENICOL] was tested, and the “inhibition zone (IZ)” value (Bacillus subtilis) was 28 mm, the “inhibition zone (IZ)” value (Escherichia coli) was 19 mm and the “inhibition zone (IZ)” value (Streptococcus pyogenes) was 22 mm.

With `COC1=CC(=O)C[C@@H](C)[C@]12Oc1c(Cl)c(OC)cc(OC)c1C2=O` [GRISEOFULVIN] the “inhibition zone (IZ)” value (Aspergillus niger) was 20 mm.

In the case of `CCn1cc(C(=O)O)c(=O)c2cc(F)c(N3CCNCC3)cc21` [NORFLOXACIN], the “inhibition zone (IZ)” value (Bacillus subtilis) is reported as 19 mm, the “inhibition zone (IZ)” value (Escherichia coli) is reported as 25 mm and the “inhibition zone (IZ)” value (Streptococcus pyogenes) is reported as 26 mm.

From ChEMBL document CHEMBL3046545, “Simple and efficient synthetic routes to bioactive s-triazinyl dithiocarbamate derivatives” (2008)
